Drawing on patent US20230203043A1, “NOVEL IMIDAZOPYRAZINE DERIVATIVES” (Hoffmann-La Roche Inc., priority 2020, published 2023), this text covers IC90 for 23 compounds.

Structures can show the parent of a compound that is named as a salt.

The first experiment has as its system Acinetobacter baumannii ATCC17961. The experiment in a line: Antimicrobial susceptibility testing: 90% growth inhibitory concentration (IC90) determination in Iso-Sensitest broth, OD600 growth. Type of experiment: cell-based. The following applies: Acinetobacter baumannii, ATCC17961, 16 h, read-out: A. baumannii ATCC 17961 IC90 (uM), strain ATCC 17961, OD600 growth over 16 h. In a few lines: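 Growth monitored at 600 nm every 20 min for 16 h at 35±2 °C, inoculum ~5×10^(5) CFU/ml in Iso-Sensitest medium. Compounds in 10-point twofold series, e.g. 50 to 0.097 μM final; 90% inhibitory concentration taken from log-phase growth.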
On to `Cn1ccc(Cn2cc(-c3cnc4c(Nc5ccc(C(=O)N6CCNCC6)c(Cl)c5)nccn34)c(C(F)(F)F)n2)n1` [Example 183, [2-chloro-4-[[3-[1-[(1-methylpyrazol-3-yl)methyl]-3-(trifluoromethyl)pyrazol-4-yl]imidazo[1,2-a]pyrazin-8-yl]amino]phenyl]-piperazin-1-ylmethanone formate], for which the IC90 was found to be 0.372 µM.

For the compound `N#CCn1cc(-c2cnc3c(Nc4ccc(C(=O)N5CCN(C(=O)CCN)CC5)c(Cl)c4)nccn23)c(C(F)(F)F)n1` [Example 286, 2-[4-[8-[4-[4-(3-aminopropanoyl)piperazine-1-carbonyl]-3-chloroanilino]imidazo[1,2-a]pyrazin-3-yl]-3-(trifluoromethyl)pyrazol-1-yl]acetonitrile formate], the IC90 worked out at 0.226 µM.

`CCc1cc(Nc2nccn3c(-c4cn(CC#N)nc4C(F)(F)F)cnc23)ccc1C(=O)NCC(=O)NCC1(O)CCNCC1` [Example 525, 4-[[3-[1-(cyanomethyl)-3-(trifluoromethyl)pyrazol-4-yl]imidazo[1,2-a]pyrazin-8-yl]amino]-2-ethyl-N-[2-[(4-hydroxy-4-piperidyl)methylamino]-2-oxo-ethyl]benzamide formate]: the IC90 was determined as 0.593 µM.

Turning to `CCc1cc(Nc2nccn3c(-c4cn(CC#N)nc4C(F)(F)F)cnc23)ccc1C(=O)N[C@H](C)C(=O)N1CCNCC1` [Example 678, 4-[[3-[1-(cyanomethyl)-3-(trifluoromethyl)pyrazol-4-yl]imidazo[1,2-a]pyrazin-8-yl]amino]-2-ethyl-N-[(1R)-1-methyl-2-oxo-2-piperazin-1-yl-ethyl]benzamide formate], the IC90 turned out to be 0.321 µM.

Turning to `CCc1cc(Nc2nccn3c(-c4cn(CC(F)F)nc4C(F)(F)F)cnc23)ccc1C(=O)N1CCC2(CNC2)C1` [Example 555, (4-((3-(1-(2,2-difluoroethyl)-3-(trifluoromethyl)-1H-pyrazol-4-yl)imidazo[1,2-a]pyrazin-8-yl)amino)-2-ethylphenyl)(2,6-diazaspiro[3.4]octan-6-yl)methanone formate], the IC90 was 0.977 µM.

With `C=C(Cl)Cn1cc(-c2cnc3c(Nc4ccc(C(=O)NCCOCCN)c(CC)c4)nccn23)c(C(F)(F)F)n1` [Example 274, N-[2-(2-aminoethoxy)ethyl]-4-[[3-[1-(2-chloroprop-2-enyl)-3-(trifluoromethyl)pyrazol-4-yl]imidazo[1,2-a]pyrazin-8-yl]amino]-2-ethylbenzamide formate], the IC90 is 0.101 µM.

Take `Cc1cc(Nc2nccn3c(-c4cn(C)nc4C(F)(F)F)cnc23)ccc1C(=O)NCCCNC(=O)[C@@H]1C[C@@H](O)CN1` [Example 455, formic acid; (2S,4R)-4-hydroxy-N-[3-[[2-methyl-4-[[3-[1-methyl-3-(trifluoromethyl)pyrazol-4-yl]imidazo[1,2-a]pyrazin-8-yl]amino]benzoyl]amino]propyl]pyrrolidine-2-carboxamide]: the IC90 turned out to be 1.21 µM.

In the case of `CCc1cc(Nc2nccn3c(-c4cn(CC#N)nc4C(F)(F)F)cnc23)ccc1C(=O)N[C@H](C)C(=O)N1CC[C@H](N)C1` [Example 736, N-[(1R)-2-[(3S)-3-aminopyrrolidin-1-yl]-1-methyl-2-oxo-ethyl]-4-[[3-[1-(cyanomethyl)-3-(trifluoromethyl)pyrazol-4-yl]imidazo[1,2-a]pyrazin-8-yl]amino]-2-ethyl-benzamide formate], the IC90 turned out to be 0.49 µM.

Still in this experiment, the particulars now being: Acinetobacter baumannii, ATCC17961, 16 h, strain ATCC 17961, OD600 growth over 16 h, read-out: A. baumannii ATCC 17961 IC90.
Consider `Cc1cc(Nc2nccn3c(-c4cn(CC#N)nc4C(F)(F)F)cnc23)ccc1C(=O)NCC(=O)N1CC[C@@H](N)C1` [Example 686, N-[2-[(3R)-3-aminopyrrolidin-1-yl]-2-oxo-ethyl]-4-[[3-[1-(cyanomethyl)-3-(trifluoromethyl)pyrazol-4-yl]imidazo[1,2-a]pyrazin-8-yl]amino]-2-methyl-benzamide], for which the IC90 came out at 0.343 µM.

For the compound `O=C(c1ccc(Nc2nccn3c(-c4cn(C(F)F)nc4C(F)(F)F)cnc23)cc1Cl)N1CCN(C(=O)[C@@H]2CCCN2)CC1` [Example 104, [2-chloro-4-[[3-[1-(difluoromethyl)-3-(trifluoromethyl)pyrazol-4-yl]imidazo[1,2-a]pyrazin-8-yl]amino]phenyl]-[4-[(2S)-pyrrolidine-2-carbonyl]piperazin-1-yl]methanone], the IC90 was determined as 0.227 µM.

Take `O=C(c1ccc(Nc2nccn3c(-c4c[nH]nc4C(F)(F)F)cnc23)cc1Cl)N1CCN(C(=O)[C@H]2CNC[C@H](O)C2)CC1` (racemic) [Example 353, [2-chloro-4-[[3-[3-(trifluoromethyl)-1H-pyrazol-4-yl]imidazo[1,2-a]pyrazin-8-yl]amino]phenyl]-[4-[rac-(3R,5R)-5-hydroxypiperidine-3-carbonyl]piperazin-1-yl]methanone]: the IC90 is 0.241 µM.

Take `Cc1cc(Nc2nccn3c(-c4cn(CC#N)nc4C(F)(F)F)cnc23)ccc1C(=O)NCC(=O)N1CCC(N)CC1` [Example 503, N-[2-(4-amino-1-piperidyl)-2-oxo-ethyl]-4-[[3-[1-(cyanomethyl)-3-(trifluoromethyl)pyrazol-4-yl]imidazo[1,2-a]pyrazin-8-yl]amino]-2-methyl-benzamide formate]: the IC90 is 0.233 µM.

`N#CCn1cc(-c2cnc3c(Nc4ccc(C(=O)N[C@H]5[C@@H]6CN(C(=O)N[C@@H]7CNC[C@H]7O)C[C@@H]65)c(Cl)c4)nccn23)c(C(F)(F)F)n1` [Example 825, (1s,5r)-6-[[2-chloro-4-[[3-[1-(cyanomethyl)-3-(trifluoromethyl)pyrazol-4-yl]imidazo[1,2-α]pyrazin-8-yl]amino]benzoyl]amino]-N-[(3R,4R)-4 hydroxypyrrolidin-3-yl]-3-azabicyclo[3.1.0]hexane-3-carboxamide formic acid salt]: the IC90 was determined as 0.11 µM.

On to `N#CCn1cc(-c2cnc3c(Nc4ccc(C(=O)N5CCN(C(=O)[C@H]6[C@@H]7CNC[C@@H]76)CC5)c(Cl)c4)nccn23)c(C(F)(F)F)n1` [Example 481, 2-(4-(8-((4-(4-((1R,5S,6r)-3-azabicyclo[3.1.0]hexane-6-carbonyl)piperazine-1-carbonyl)-3-chlorophenyl)amino)imidazo[1,2-a]pyrazin-3-yl)-3-(trifluoromethyl)-1H-pyrazol-1-yl)acetonitrile formate], for which the IC90 amounted to 0.117 µM.

With `CCc1cc(Nc2nccn3c(-c4cn(CCF)nc4C(F)(F)F)cnc23)ccc1C(=O)N[C@H](C)CN` [Example 110, N-[(2R)-1-aminopropan-2-yl]-2-ethyl-4-[[3-[1-(2-fluoroethyl)-3-(trifluoromethyl)pyrazol-4-yl]imidazo[1,2-a]pyrazin-8-yl]amino]benzamide], the IC90 was found to be 0.506 µM.

For `C=CCn1cc(-c2cnc3c(Nc4ccc(C(=O)N5CCN(C(=O)C6CCNCC6)CC5)c(CC)c4)nccn23)c(C(F)(F)F)n1` [Example 64, [2-ethyl-4-[[3-[1-prop-2-enyl-3-(trifluoromethyl)pyrazol-4-yl]imidazo[1,2-a]pyrazin-8-yl]amino]phenyl]-[4-(piperidine-4-carbonyl)piperazin-1-yl]methanone], the IC90 was 0.306 µM.

In the case of `NCC(=O)N1CCN(C(=O)c2ccc(Nc3nccn4c(-c5cn(CC(F)F)nc5C(F)(F)F)cnc34)cc2F)CC1` [Example 812, 2-amino-1-(4-(4-(3-(1-2,2-difluoroethyl)-3-(trifluoromethyl)-1H-pyrazol-4-yl)imidazo[1,2-a]pyrazin-8-yl)amino)-2-fluorobenzoyl) piperazin-1-yl) ethan-1-one hydrochloride], the IC90 was found to be 0.2 µM.

Take `CCc1cc(Nc2nccn3c(-c4cn(CC(F)F)nc4C(F)(F)F)cnc23)ccc1C(=O)NCCCNC(=O)[C@H]1C[C@@H](N)C1` [Example 541, N-(3-((1s,3s)-3-aminocyclobutane-1-carboxamido)propyl)-4-((3-(1-(2,2-difluoroethyl)-3-(trifluoromethyl)-1H-pyrazol-4-yl)imidazo[1,2-a]pyrazin-8-yl)amino)-2-ethylbenzamide formate]: the IC90 stood at 0.246 µM.

For the compound `O=C(c1ccc(Nc2nccn3c(-c4cn(CC(F)F)nc4C(F)(F)F)cnc23)cc1Cl)N1CCN(C(=O)[C@@H]2CCCN2)CC1` [Example 115, [2-chloro-4-[[3-[1-(2,2-difluoroethyl)-3-(trifluoromethyl)pyrazol-4-yl]imidazo[1,2-a]pyrazin-8-yl]amino]phenyl]-[4-[(2S)-pyrrolidine-2-carbonyl]piperazin-1-yl]methanone], the concentration for an effect of 90% (IC90) was determined as 0.251 µM.

In the case of `CCc1cc(Nc2nccn3c(-c4cn(CC#N)nc4C(F)(F)F)cnc23)ccc1C(=O)NCCNC(=O)[C@@H]1CC[C@H](N)C1` [Example 494, N-(2-((1R,3S)-3-aminocyclopentane-1-carboxamido)ethyl)-4-((3-(1-(cyanomethyl)-3-(trifluoromethyl)-1H-pyrazol-4-yl)imidazo[1,2-a]pyrazin-8-yl)amino)-2-ethylbenzamide formate], the IC90 came out at 0.157 µM.

Turning to `C#CCn1cc(-c2cnc3c(Nc4cc(C)c(C(=O)N[C@H](C)CN)c(F)c4)nccn23)c(C(F)(F)F)n1` [Example 662, (R)-N-(1-aminopropan-2-yl)-2-fluoro-6-methyl-4-((3-(1-(prop-2-yn-1-yl)-3-(trifluoromethyl)-1H-pyrazol-4-yl)imidazo [1,2-a]pyrazin-8-yl)amino)benzamide], the IC90 came out at 0.284 µM.

As to `CCc1cc(Nc2nccn3c(-c4c[nH]nc4C(F)(F)F)cnc23)ccc1C(=O)NCCOCCN1CCCC1` [Example 672, 2-ethyl-N-(2-(2-(pyrrolidin-1-yl)ethoxy)ethyl)-4-((3-(3-(trifluoromethyl)-1H-pyrazol-4-yl)imidazo[1,2-a]pyrazin-8-yl)amino)benzamide], the IC90 worked out at 0.313 µM.

Staying with this experiment, now noted: strain ATCC 17961, OD600 growth over 16 h, read-out: A. baumannii ATCC 17961 IC90.
Consider `CCc1cc(Nc2nccn3c(-c4cn(CC5CC5)nc4C(F)(F)F)cnc23)ccc1C(=O)NCCOCCN` [Example 30, N-[2-(2-aminoethoxy)ethyl]-4-[[3-[1-(cyclopropylmethyl)-3-(trifluoromethyl)pyrazol-4-yl]imidazo[1,2-a]pyrazin-8-yl]amino]-2-ethylbenzmamide formate], for which the IC90 was 0.159 µM.

What is called IC90 is the concentration at which the effect reaches the 90% level.
